In brackets after ≈: the same amount, converted by molar mass. Activity calls are given as the source filed them. The rule behind the calls is not given here.
Experiments:
Rattus norvegicus [1] = assay: Analgesic activity in rat model assessed as inhibition of carrageenan-induced thermal hyperalgesia at 0.3 mg/kg, po administered 1 hr prior carrageenan challenge relative to control; format: functional, organism-based; parameters: dose 0.3 mg/kg
[2] = Cmax in fasted Sprague-Dawley rat at 5 mg/kg, po; format: ADME, organism-based; parameters: dose 5 mg/kg, route oral; conditions: in vivo
Rattus norvegicus [3] = assay: Analgesic activity in rat model assessed as maximum degree of inhibition of carrageenan-induced thermal hyperalgesia at 3 mg/kg, po administered 1 hr prior carrageenan challenge measured after 4 hrs; format: functional; parameters: scale not given: the % may be the effect or the level left
[4] = Volume of distribution at steady state in fasted Sprague-Dawley rat at 1 mg/kg, iv and 5 mg/kg, po; format: ADME, organism-based; conditions: in vivo, read-out: Vdss
[5] = biological target: T1, Transient receptor potential cation channel subfamily V member 1 (Rattus norvegicus, UniProt O35433); assay: Antagonist activity at rat TRPV1 expressed in HEK293 cells assessed as inhibition of low pH-induced calcium influx; format: functional, cell-based
Rattus norvegicus [6] = assay: AUC (0 to infinity) in fasted Sprague-Dawley rat at 5 mg/kg, po; format: ADME, organism-based, Plasma; parameters: time infinity, dose 5 mg/kg, route oral; conditions: in vivo
Rattus norvegicus [7] = assay: Analgesic activity against carrageenan-induced thermal hyperalgesia in po dosed rat model assessed as paw withdrawal latency; format: functional, organism-based
[8] = Plasma concentration in carrageenan-induced thermal hyperalgesia rat model at 1 mg/kg, po after 5 hrs post-carrageenan injection; format: ADME, organism-based; parameters: dose 1 mg/kg, route oral
[9] = Plasma concentration in carrageenan-induced thermal hyperalgesia rat model at 3 mg/kg, po after 5 hrs post-carrageenan injection; format: ADME, organism-based; parameters: dose 3 mg/kg, route oral
Rattus norvegicus [10] = assay: Analgesic activity in rat model assessed as inhibition of carrageenan-induced thermal hyperalgesia at 3 mg/kg, po administered 1 hr prior carrageenan challenge relative to control; format: functional, organism-based; parameters: dose 3 mg/kg
[11] = biological target: Transient receptor potential cation channel subfamily V member 1 (Rattus norvegicus) (UniProt O35433); assay: Antagonist activity at rat TRPV1 assessed as fold increase in EC50 of capsaicin-induced isometric contraction in rat bladder at 100 nM; format: functional
Rattus norvegicus [12] = assay: Bioavailability in fasted Sprague-Dawley rat at 1 mg/kg, iv and 5 mg/kg, po; format: ADME, organism-based; conditions: in vivo
Rattus norvegicus [13] = species on record: Rattus norvegicus; assay: Suppression of KCl-induced rat bladder contraction at 100 nM; format: functional, tissue-based; conditions: Urinary bladder
[14] = biological target: Transient receptor potential cation channel subfamily V member 1 (Homo sapiens, UniProt Q8NER1); assay: Antagonist activity at human TRPV1 expressed in HEK293 cells assessed as inhibition of low pH-induced calcium influx; format: functional, cell-based
[15] = Half life in fasted Sprague-Dawley rat at 1 mg/kg, iv and 5 mg/kg, po; format: ADME, organism-based; conditions: in vivo
[16] = Aqueous solubility in simulated gastric fluid at pH 1.2 after 3 days by HPLC; format: physicochemical
[17] = Plasma concentration in carrageenan-induced thermal hyperalgesia rat model at 0.3 mg/kg, po after 5 hrs post-carrageenan injection; format: ADME, organism-based; parameters: dose 0.3 mg/kg, route oral
Rattus norvegicus [18] = assay: Analgesic activity in rat model assessed as inhibition of carrageenan-induced thermal hyperalgesia at 1 mg/kg, po administered 1 hr prior carrageenan challenge relative to control; format: functional, organism-based; parameters: dose 1 mg/kg
Rattus norvegicus [19] = assay: Analgesic activity in po dosed rat model assessed as inhibition of carrageenan-induced thermal hyperalgesia administered 1 hr prior carrageenan challenge; format: functional
[20] = Plasma concentration in carrageenan-induced thermal hyperalgesia rat model at 30 mg/kg, po after 5 hrs post-carrageenan injection; format: ADME, organism-based; parameters: dose 30 mg/kg, route oral
[21] = biological target: T1, Transient receptor potential cation channel subfamily V member 1; assay: Displacement of [3H]RTX from rat TRPV1 expressed in HEK293 cells; format: cell-based
[22] = Tmax in fasted Sprague-Dawley rat at 5 mg/kg, po; format: ADME, organism-based; parameters: dose 5 mg/kg, route oral; conditions: in vivo
[23] = Aqueous solubility in fasted-state simulated intestinal fluid at pH 6.8 after 3 days by HPLC; format: physicochemical
Rattus norvegicus [24] = assay: Analgesic activity in rat model assessed as inhibition of carrageenan-induced thermal hyperalgesia at 30 mg/kg, po administered 1 hr prior carrageenan challenge relative to control; format: functional, organism-based; parameters: dose 30 mg/kg
Rattus norvegicus [25] = assay: Clearance in fasted Sprague-Dawley rat at 1 mg/kg, iv and 5 mg/kg, po; format: ADME, organism-based; conditions: in vivo

T1 sequence (O35433 whole entry): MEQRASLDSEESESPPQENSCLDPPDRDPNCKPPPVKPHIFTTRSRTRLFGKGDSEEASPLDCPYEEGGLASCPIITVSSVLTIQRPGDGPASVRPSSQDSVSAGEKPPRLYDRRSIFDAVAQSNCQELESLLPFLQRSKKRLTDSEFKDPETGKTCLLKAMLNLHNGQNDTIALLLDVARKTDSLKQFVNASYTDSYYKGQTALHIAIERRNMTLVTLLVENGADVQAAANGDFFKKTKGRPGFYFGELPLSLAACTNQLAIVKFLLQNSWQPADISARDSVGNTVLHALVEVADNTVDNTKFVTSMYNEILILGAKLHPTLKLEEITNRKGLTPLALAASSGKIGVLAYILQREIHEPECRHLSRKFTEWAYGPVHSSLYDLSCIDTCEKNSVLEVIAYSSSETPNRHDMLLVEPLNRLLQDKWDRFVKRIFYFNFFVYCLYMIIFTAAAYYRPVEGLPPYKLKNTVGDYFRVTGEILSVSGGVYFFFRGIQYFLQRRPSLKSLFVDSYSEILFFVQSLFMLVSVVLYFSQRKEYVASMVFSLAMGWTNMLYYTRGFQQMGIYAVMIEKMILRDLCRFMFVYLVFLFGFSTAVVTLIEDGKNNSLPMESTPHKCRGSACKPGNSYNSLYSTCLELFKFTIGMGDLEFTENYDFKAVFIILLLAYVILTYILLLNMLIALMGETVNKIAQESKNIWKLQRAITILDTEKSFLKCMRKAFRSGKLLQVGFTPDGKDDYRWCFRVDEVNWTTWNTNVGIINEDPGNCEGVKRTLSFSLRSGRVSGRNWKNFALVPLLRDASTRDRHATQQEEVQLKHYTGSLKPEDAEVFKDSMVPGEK
Sequence of Transient receptor potential cation channel subfamily V member 1 (Homo sapiens, UniProt Q8NER1) (Q8NER1 whole entry): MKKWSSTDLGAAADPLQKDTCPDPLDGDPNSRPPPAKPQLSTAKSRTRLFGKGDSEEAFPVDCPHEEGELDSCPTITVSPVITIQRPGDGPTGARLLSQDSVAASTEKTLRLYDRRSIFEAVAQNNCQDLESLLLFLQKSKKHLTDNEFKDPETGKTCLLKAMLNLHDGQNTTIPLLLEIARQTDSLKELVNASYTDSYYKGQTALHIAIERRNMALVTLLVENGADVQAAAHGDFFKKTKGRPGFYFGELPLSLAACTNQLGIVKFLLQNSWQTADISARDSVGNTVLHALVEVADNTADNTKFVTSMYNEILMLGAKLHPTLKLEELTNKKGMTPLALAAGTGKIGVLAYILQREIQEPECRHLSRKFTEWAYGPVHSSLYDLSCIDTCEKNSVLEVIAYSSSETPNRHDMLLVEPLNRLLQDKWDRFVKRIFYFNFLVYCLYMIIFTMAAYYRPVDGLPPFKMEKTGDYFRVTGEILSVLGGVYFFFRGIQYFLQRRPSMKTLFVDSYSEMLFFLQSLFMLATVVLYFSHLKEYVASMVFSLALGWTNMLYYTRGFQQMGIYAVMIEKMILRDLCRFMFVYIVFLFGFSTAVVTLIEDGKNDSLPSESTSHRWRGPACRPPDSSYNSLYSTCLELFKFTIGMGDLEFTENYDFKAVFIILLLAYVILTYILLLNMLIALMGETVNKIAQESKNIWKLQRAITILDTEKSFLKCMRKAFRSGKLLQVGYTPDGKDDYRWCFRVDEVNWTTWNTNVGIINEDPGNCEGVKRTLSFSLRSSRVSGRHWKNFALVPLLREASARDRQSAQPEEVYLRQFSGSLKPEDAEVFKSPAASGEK
Sequence of Transient receptor potential cation channel subfamily V member 1 (Rattus norvegicus) (O35433 whole entry): as the sequence (O35433 whole entry) above

**Q.** For `FC(F)(F)c1ccc(Nc2ncnc3sc(Nc4c(Cl)cccc4Cl)nc23)cc1`, which Activity (Rattus norvegicus [1]) is on record?
**A.** Active

**Q.** What about the Cmax [2] of the same compound?
**A.** 1100 nM

**Q.** And the Activity (Rattus norvegicus [3])?
**A.** 57%

**Q.** What about the Vd [4] of the same compound?
**A.** 1.6 L/kg

**Q.** And the IC50 [5]?
**A.** 6 nM

**Q.** And the AUC (Rattus norvegicus [6])?
**A.** 10000 ng·h/mL

**Q.** What about the Activity (Rattus norvegicus [7]) of the same compound?
**A.** inactive

**Q.** What about the concentration at 5 h [8] of the same compound?
**A.** 58 nM

**Q.** And the concentration at 5 h [9]?
**A.** 428 nM

**Q.** What about the Activity (Rattus norvegicus [10]) of the same compound?
**A.** Active

**Q.** And the fold change (FC) [11]?
**A.** 6

**Q.** And the F (Rattus norvegicus [12])?
**A.** 43%

**Q.** What about the Activity (Rattus norvegicus [13]) of the same compound?
**A.** inactive

**Q.** What about the IC50 [14] of the same compound?
**A.** 19 nM

**Q.** And the half-life [15]?
**A.** 2.2 h

**Q.** What about the solubility at 72 h [16] of the same compound?
**A.** ≤ 1 µg/mL

**Q.** What about the concentration at 5 h [17] of the same compound?
**A.** 10 nM

**Q.** And the Activity (Rattus norvegicus [18])?
**A.** Active

**Q.** What about the ED50 (Rattus norvegicus [19]) of the same compound?
**A.** 0.5 mg/kg

**Q.** What about the concentration at 5 h [20] of the same compound?
**A.** 3050 nM

**Q.** And the Ki [21]?
**A.** 4 nM

**Q.** What about the Tmax [22] of the same compound?
**A.** 2 h

**Q.** And the solubility at 72 h [23]?
**A.** 2 µg/mL (≈ 4.38 µM)

**Q.** And the Activity (Rattus norvegicus [24])?
**A.** Active

**Q.** And the CL (Rattus norvegicus [25])?
**A.** 10 mL/min/kg

From ChEMBL document CHEMBL1139308, “Identification and synthesis of 2,7-diamino-thiazolo[5,4-d]pyrimidine derivatives as TRPV1 antagonists” (Bioorg Med Chem Lett, 2009)
